Test results published in publication PMC12384813.
Where two headings read alike, the source gives them in different places.

Experiments:
[1] = test system: SVG p12 normal glial cells
U87 MG cells = experiment: cells; type: cell-based, human; details: U87 MG
Description: In this procedure, U87 MG (2 × 10^4 cells per well) were seeded in BD falcon transparent 96-well plates and incubated for 24 h.

[2] = parameters: method as in PMID 30023392; details: daily cisplatin for 5 days before radiation ref 24; cited from earlier work
[3] = molecular target: T1, αvβ3 integrins on human GBM (U87 MG) cell (Homo sapiens, UniProt P05106+P06756); experiment: Competition assay against [^64Cu]Cu-NOTA-c(RGDfK) on U87 MG cells; type: binding; details: in competition to [^64Cu]Cu-NOTA-c(RGDfK), 1 h incubation
T1 construct: host or cells: U87 MG

Structure (SMILES)	EC50 [1]	EC50 ([1]; read-out: EC50 24 h SVG p12, 24 h, SVG p12)	EC50 ([1]; read-out: EC50 48 h SVG p12, 48 h, SVG p12)	EC50 (U87 MG cells; 24 h, read-out: EC50 24 h U87 MG)	EC50 (U87 MG cells; 48 h, read-out: EC50 48 h U87 MG)	EC50 (U87 MG cells; 72 h, read-out: EC50 72 h U87 MG)	increase of treatment efficacy compared to radiotherapy alone [2]	IC50 [3]
N.N.[Cl][Pt][Cl] [Cisplatin]	15 ± 5 µM	35 ± 4 µM	15 ± 7 µM	90 ± 8 µM	25 ± 6 µM	20 ± 5 µM	35%	
N=C(N)NCCC[C@@H]1NC(=O)[C@H](CCCCNC(=O)CNC(=O)COCCOCCNC(=O)CN2CCN(CC(=O)O)CCN(CC(=O)O)CC2)NC(=O)[C@@H](Cc2ccccc2)NC(=O)[C@H](CC(=O)O)NC(=O)CNC1=O [^natCu-NOTA-c(RGDfK), metal not drawn]								0.0106 ± 0.0032 µM
